From patent US6211168A, “Methods for preparation and use of 1α,24 (S)-dihydroxy vitamin D2” (Bone Care International, Inc, priority 1995, dated 2001)
Like-named read-outs stand apart in the source and are kept apart here.

Key:
[1] = target: T1, vitamin D receptor (VDR) (Homo sapiens, UniProt P11473); test: vitamin D-dependent transcriptional activation: growth hormone production in transfected COS-1 cells; format: cell-based; details: inducer molar concentration 10^-9; total minus ethanol control
T1 construct: RXR partner endogenous (monkey)
T1 sequence (P11473 1-427): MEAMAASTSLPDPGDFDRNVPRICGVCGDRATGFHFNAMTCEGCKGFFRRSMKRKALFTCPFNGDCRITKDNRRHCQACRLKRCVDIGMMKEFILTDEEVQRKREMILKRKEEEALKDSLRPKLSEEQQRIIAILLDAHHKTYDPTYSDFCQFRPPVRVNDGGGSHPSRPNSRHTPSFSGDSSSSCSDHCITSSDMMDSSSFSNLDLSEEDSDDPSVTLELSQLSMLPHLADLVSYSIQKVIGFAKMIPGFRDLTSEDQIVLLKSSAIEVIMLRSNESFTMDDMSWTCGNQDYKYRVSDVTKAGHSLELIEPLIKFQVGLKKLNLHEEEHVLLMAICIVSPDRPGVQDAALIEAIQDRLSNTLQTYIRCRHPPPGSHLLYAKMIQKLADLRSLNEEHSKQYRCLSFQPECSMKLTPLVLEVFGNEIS
Method: The biological activity in vitro of chemically synthesized 1α,24(S)-(OH)2 D2 and 1α,24(R)-(OH)2 D2 was measured using a vitamin D-dependent transcriptional activation model system in which a vitamin D receptor (VDR)-expressing plasmid pSG5-hVDR1/3and a plasmid p(CT4)^4 TKGH containing a Growth Hormone (GH)-gene, under the control of a vitamin D-responsive element (VDRE) were co-transfected into Green monkey kidney, COS-1 cells. DNA's for these two vectors were supplied by Dr. Mark Haussler, Department of Biochemistry, University of Arizona, Tucson, Ariz.
Tranfected cells were incubated with vitamin D metabolites and growth hormone production was measured.

[2] = test system: 1,25-(OH)2 D3 receptor site; details: Ishizuka et al., Steroids 1981, 1982; cited from earlier work
[3] = test system: human osteoporotic patients; details: humans; cited from earlier work
[4] = blood levels of metabolites in osteoporotic women administered 1α-OH-D2; format: in vivo, human; details: one day after a single 2 μg dose of 1α-OH-D2, women
Method: An increase in the production of 1α,24(S)-(OH)2 D2 relative to 1α,25-(OH)2 D2 has also been observed by the present inventors in human females who received 1α-OH-D2 as part of an investigation of that drug for the treatment of osteoporosis. Following either a single dose of 2 μg of 1α-OH-D2 or daily doses of 8 μg/day for one week, blood was collected and analyzed for the metabolites 1α,24(S)-(OH)2 D2 and 1α,25-(OH)2 D2. Lipid was extracted from the blood, and the metabolites were purified by HPLC using standard methods and quantified with the radioreceptor assay produced by Incstar (Stillwater, Minn.). One day after a single 2 μg dose, the level of 1α,24(S)-(OH)2 D2 was undetectable with the 1α,25-(OH)2 D2 level being approximately 11 pg/ml. In contrast, one day following the last dose of 8 μg, the level of 1α,24(S)-(OH)2 D2 averaged 9 pg/ml with the 1α,25-(OH)2 D2 level averaging 30 pg/ml.

[5] = format: in vivo, rat
Method: Vitamin D2 or 24-OH-D2 was administered (either oral or intraperitoneal supplementation) to vitamin D-deficient rats. Lipid extracts of the plasma were prepared and the metabolites purified by the method of Horst et al. (Horst, A. L., Koszewski, N. J. and Reinhardt, T. A., Biochem., 29:578-82 (1990)) described below for synthesyzing standard biological 1α,24-(OH)2 D2.
Standard biological 1α,24-(OH)2 D2 was synthesized in vitro from 24-OH-D2 by incubating 10 μg of 24-OH-D2 in flask containing 5 ml of 20% kidney homogenates made from vitamin D-deficient chicks. The product of this reaction was isolated by HPLC and identified by mass spectrometry.

## C=C1/C(=C\C=C2/CCC[C@]3(C)[C@@H]([C@H](C)/C=C/[C@](C)(O)C(C)C)CC[C@@H]23)C[C@@H](O)C[C@@H]1O [1α,24(R)-(OH)2 D2, 1α,24(R)-dihydroxy vitamin D2]
[1]
  Net vitamin D-inducible GH-production: 36 ng/mL

## C=C1/C(=C\C=C2/CCC[C@]3(C)[C@@H]([C@H](C)CC[C@@H](O)C(C)C)CC[C@@H]23)C[C@@H](O)C[C@@H]1O [1α,24(R)-(OH)2 D3, 1α,24(R)-dihydroxyvitamin D3]
[2]
  binding to the 1,25-(OH)2 D3 receptor site relative to 1,25-(OH)2 D3: more tightly than does 1,25-(OH)2 D3 itself

## C=C1/C(=C\C=C2/CCC[C@]3(C)[C@@H]([C@H](C)CCCC(C)C)CC[C@@H]23)C[C@@H](O)C[C@@H]1O [1α-(OH) D3, 1α-hydroxy vitamin D3]
[3]
  tolerability of dosage levels of 2.0 μg/day or greater: not safely obtained

## C=C1/C(=C\C=C2/CCC[C@]3(C)[C@@H]([C@H](C)/C=C/[C@H](C)C(C)C)CC[C@@H]23)C[C@@H](O)C[C@@H]1O [1α-OH-D2, 1α-hydroxy vitamin D2]
[4]
  blood level of metabolite 1α,24(S)-(OH)2 D2: undetectable

## C=C1CC[C@H](O)C/C1=C/C=C1\CCC[C@]2(C)[C@@H]([C@H](C)/C=C/C(C)(O)C(C)C)CC[C@@H]12 (stereo partly shown) [24-OH-D2, 24-hydroxyvitamin D2]
[5]; rat, in vivo
  plasma metabolite 1α,24-(OH)2 D2 found after administration: co-migrated on HPLC with the standard 1α,24-(OH)2 D2

## C=C1CC[C@H](O)C/C1=C/C=C1\CCC[C@]2(C)[C@@H]([C@H](C)/C=C/[C@H](C)C(C)C)CC[C@@H]12 [vitamin D2]
[5]; vitamin D-deficient rats, oral or intraperitoneal, HPLC of plasma lipid extracts
  plasma metabolite 1α,24-(OH)2 D2 found after administration: co-migrated on HPLC with the standard 1α,24-(OH)2 D2

## C=C1CC[C@H](O)C/C1=C/C=C1\CCC[C@]2(C)[C@@H]([C@H](C)CCCC(C)C)CC[C@@H]12 [vitamin D3]
[5]; comparable vitamin D-deficient rats
  24-hydroxylated metabolite in plasma after administration: no detectable 24-OH-D3
